Assay results from ChEMBL document CHEMBL1201862, “PubChem BioAssay data set” (2004).
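Values below derive from 48-hour exposures of cells grown in 96-well plates, with endpoints linearly interpolated between the two concentrations bracketing the appropriate inhibition level. GI50 is the concentration that inhibits growth by half.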 Activity calls are given as the source filed them. No stated cut-off is given here; in the data, active = GI50 up to about 1.1 µM and inactive = higher.

Legend:
Assay in all cases: inhibition of tumour cell growth, NCI panel, 48 h
786-0 = test system: 786-0
ACHN = test system: ACHN
DU-145 = test system: DU-145
HCT-116 = test system: HCT-116
HOP-62 = test system: HOP-62
HT-29 = test system: HT-29
K562 = test system: K562
KM12 = test system: KM12
MCF7 = test system: MCF7
MDA-MB-231 = test system: MDA-MB-231
Malme-3M = test system: Malme-3M
NCI-H23 = test system: NCI-H23
NCI-H460 = test system: NCI-H460
OVCAR-5 = test system: OVCAR-5
OVCAR-8 = test system: OVCAR-8
PC-3 = test system: PC-3
SK-MEL-28 = test system: SK-MEL-28
SN12C = test system: SN12C
UACC-257 = test system: UACC-257
UACC-62 = test system: UACC-62

| SMILES | GI50 (786-0) | GI50 (ACHN) | GI50 (DU-145) | GI50 (HCT-116) | GI50 (HOP-62) | GI50 (HT-29) | GI50 (K562) | GI50 (KM12) | GI50 (MCF7) | GI50 (MDA-MB-231) | GI50 (Malme-3M) | GI50 (NCI-H23) | GI50 (NCI-H460) | GI50 (OVCAR-5) | GI50 (OVCAR-8) | GI50 (PC-3) | GI50 (SK-MEL-28) | GI50 (SN12C) | GI50 (UACC-257) | GI50 (UACC-62) |
| --- | --- | --- | --- | --- | --- | --- | --- | --- | --- | --- | --- | --- | --- | --- | --- | --- | --- | --- | --- | --- |
| c1cc(Sc2nc(Sc3ccncc3)nc(Sc3ccncc3)n2)ccn1 | > 100 µM (inactive) | > 100 µM (inactive) | > 100 µM (inactive) | > 100 µM (inactive) | > 100 µM (inactive) | > 100 µM (inactive) | > 100 µM (inactive) | > 100 µM (inactive) | > 100 µM (inactive) | > 100 µM (inactive) | > 100 µM (inactive) | > 100 µM (inactive) | > 100 µM (inactive) | > 100 µM (inactive) | > 100 µM (inactive) | > 100 µM (inactive) | > 100 µM (inactive) | > 100 µM (inactive) | > 100 µM (inactive) | > 100 µM (inactive) |
| O=C1N(CN2CCOCC2)CN(CN2CCOCC2)C(=O)N1Cc1ccccc1 | 26.6 µM (inactive) | 32.5 µM (inactive) | 24.9 µM (inactive) | 22.8 µM (inactive) | 35.4 µM (inactive) | 20.3 µM (inactive) | 24 µM (inactive) | 23.8 µM (inactive) | 29.4 µM (inactive) | 26.2 µM (inactive) | 15.2 µM (inactive) | 17.9 µM (inactive) | 32.6 µM (inactive) | > 100 µM (inactive) | 19.2 µM (inactive) | 29.9 µM (inactive) | 19.3 µM (inactive) | 23 µM (inactive) | 21.7 µM (inactive) | 22.2 µM (inactive) |
| COC(=O)C1(CCCCCBr)CCCCCCCCCCC1=O (stereo not given) | 30.3 µM (inactive) | 40.7 µM (inactive) | 88.5 µM (inactive) | 26.4 µM (inactive) | > 100 µM (inactive) | 42.2 µM (inactive) | 32.9 µM (inactive) | 46.5 µM (inactive) | 15.7 µM (inactive) | 36.6 µM (inactive) | 19.7 µM (inactive) | 45.9 µM (inactive) | 58.6 µM (inactive) | 37.3 µM (inactive) | 54.2 µM (inactive) | 44.1 µM (inactive) | 35.3 µM (inactive) | 37.6 µM (inactive) | 23.7 µM (inactive) | 79.6 µM (inactive) |
| O=C(N/N=C(COc1ccccc1Cl)\N=C\c1cccnc1)c1ccncc1 | > 100 µM (inactive) | > 100 µM (inactive) | > 100 µM (inactive) | > 100 µM (inactive) | > 100 µM (inactive) | > 100 µM (inactive) | > 100 µM (inactive) | > 100 µM (inactive) | > 100 µM (inactive) | > 100 µM (inactive) | > 100 µM (inactive) | > 100 µM (inactive) | > 100 µM (inactive) | > 100 µM (inactive) | > 100 µM (inactive) | > 100 µM (inactive) | > 100 µM (inactive) | > 100 µM (inactive) | > 100 µM (inactive) | > 100 µM (inactive) |
| CCCC(=O)Nc1cc(C(=O)N2C[C@H]3C[C@@]34C2=CC(=O)c2[nH]cc(C)c24)n(COC)c1 | 0.149 µM (active) | 0.197 µM (active) | 0.116 µM (active) | 0.182 µM (active) | 0.728 µM (active) | 0.467 µM (active) | 0.131 µM (active) | 0.449 µM (active) | 0.0303 µM (active) | 0.281 µM (active) | 0.105 µM (active) | 0.0743 µM (active) | 0.317 µM (active) | 1.16 µM (inactive) | 0.0973 µM (active) | 0.745 µM (active) | 0.208 µM (active) | 0.966 µM (active) | 0.171 µM (active) | 0.195 µM (active) |
| CS(=O)(=O)OCCN(CCOS(C)(=O)=O)c1ccc(/C=N/c2ccc(-c3csc(COc4ccccc4)n3)cc2)cc1 | 0.429 µM (active) | 0.407 µM (active) | 1.64 µM (inactive) | 12.6 µM (inactive) | 1.32 µM (inactive) | 4.31 µM (inactive) | 5.02 µM (inactive) | 4.78 µM (inactive) | 5.42 µM (inactive) | 17 µM (inactive) | 12.8 µM (inactive) | 2.21 µM (inactive) | 0.0708 µM (active) | 3.73 µM (inactive) | 6.17 µM (inactive) | 7.06 µM (inactive) | 12.7 µM (inactive) | 5.14 µM (inactive) | 10.2 µM (inactive) | 1.87 µM (inactive) |
| O=C(N/C(=C\c1ccccc1)c1nc2ccccc2c(=O)o1)c1ccccc1 | 41.7 µM (inactive) | 31 µM (inactive) | > 76.7 µM (inactive) | > 55.3 µM (inactive) | > 52.5 µM (inactive) | > 100 µM (inactive) | > 100 µM (inactive) | 7.96 µM (inactive) | 5.38 µM (inactive) | > 38.3 µM (inactive) | > 100 µM (inactive) | 46.3 µM (inactive) | > 72.6 µM (inactive) | > 88.9 µM (inactive) | > 57.7 µM (inactive) | > 100 µM (inactive) | > 100 µM (inactive) | > 86.7 µM (inactive) | > 43.1 µM (inactive) | 30.1 µM (inactive) |
